According to patent US20250051243A1, “Nano Bio-Carrier with Plant Additives Combined with Chemical Fertilizers” (Sabic Agri-Nutrients Company, priority 2021, published 2025):

Tested on: Maize
Assay: Maize trials: soil and foliar application of nano chitosan fertilizer product on maize crops (greenhouse pots)
Type: in vivo
Procedure: Maize trials. Assays were also performed to evaluate soil and foliar application of nano chitosan fertilizer product on maize crops. These trials were also performed to investigate the effect of different concentrations of bulk and nano chitosan on the growth and productivity of maize. The maize trials included a further formulation for nano-chitosan urea, namely a urea-chitosan nanocomposite. The urea-chitosan nanocomposite was prepared by evaporating or freeze-drying the nano-chitosan fertilizer aqueous solution. The current urea-chitosan nanocomposite was prepared by evaporating an aqueous solution of nanochitosan urea at 50° C. for two days in an oven. Nanocomposite morphology of the urea-chitosan nanocomposite was confirmed based on SEM and compositional analysis shown in FIGS. 6A-6E and TEM shown in FIGS. 7A-7E. For SEM and compositional analysis on solid form, samples were studied in Zeiss EVO 15 after coating samples with gold to avoid charging. The powder was mounted on an aluminum stub. Based on the EDS analysis, it appeared that chitosan and urea was present in this powder. For the TEM analysis, a small amount of the sample was taken in a small vial, diluted with DM water and sonicated for 15 mins. One to two drops of this solution was taken on a formvar grid, the excess liquid was blotted on a filter paper, and TEM analysis was carried out Tecnai F20 at representative magnifications shown in FIGS. A thin grey film in the background with very small sized darker particles were apparent. An occasional larger sized film was also seen. Because urea dissolves in water, the morphology seen in the images of this sample was primarily urea-chitosan nanocomposite (nanoparticles). The process of drying in an oven over two days ensured steady removal of water without disturbing the nano-morphology of the urea-chitosan nanocomposite. Table 6 presents the trial details for the soil and foliar application of nano chitosan fertilizer product on maize crops. [table] Control samples were T1 (urea granules, at different time); T2 (urea and zinc, commercially available); and T13 (urea powder). As shown, Table 7A also presents the varying concentrations for the samples. […] Each rectangle represented a section or table in the greenhouse and the respective Trial sample(s) shown thereon. […] FIG. 13 is a graphical representation of the number of leaves apparent at 30 days after sowing (DAS) and at 60 DAS for samples T1 through T23. […] The amount of chlorophyll present in the leaf for samples T1 through T23 was measured using a soil plant analysis development (SPAD) chlorophyll meter and is shown in FIG. 14. […]

With `NC(N)=O` [T13, urea] the “SPAD READING 30 DAS” value (leaf chlorophyll, SPAD chlorophyll meter, 30 DAS) was 34.50, the “SPAD READING 60 DAS” value (leaf chlorophyll, SPAD chlorophyll meter, 60 DAS) was 33.33 and the “Cob Yield” value (maize) was 7.33 g. For the same compound, the “Grain Yield” value (maize) was 0.00 g, the “Plant Height 30 DAS” value (maize, 30 DAS) was 124.33 centimeters and the “Plant height 60 DAS” value (maize, 60 DAS) was 159.00 centimeters. The “No. of leaves 30 DAS” value (maize, 30 days after sowing, soil or foliar application as per treatment) was 8.67, the “No. of leaves 60 DAS” value (maize, 60 days after sowing, soil or foliar application as per treatment) was 12.67 and the “corn cob development (grains within the cob)” value (observation by greenhouse section A, B, C) was “failed to show grains”.
